Earlier results on 57 compounds are cited in paper PMC8025584, “Identification of multipotent drugs for COVID-19 therapeutics with the evaluation of their SARS-CoV2 inhibitory activity” (Computational and Structural Biotechnology Journal, 2021).

Counter-ions that a name gives are not always drawn. Like-named read-outs stand apart in the source and are kept apart here.

This data set has as its system differentially expressed human proteins in COVID-19. As to conditions: ref DGIdb, cited from earlier work.
Setting [1] is: gene CACNA1A, drug-gene interaction listed in DGIdb export.
[2] abbreviates: gene CCR1, drug-gene interaction listed in DGIdb export.
Setting [3] is: gene HCK, drug-gene interaction listed in DGIdb export.

For `COc1ccc(-c2ccc3cc(C(=O)O)ccc3c2)cc1C12CC3CC(CC(C3)C1)C2`, the interaction_types entry was “antagonist” (gene JUN, drug-gene interaction listed in DGIdb export) and “agonist” (gene RXRB). For the compound `NC(=O)[C@@H](CCC(F)(F)F)N(Cc1ccc(-c2ncon2)cc1F)S(=O)(=O)c1ccc(Cl)cc1`, the interaction_types entry (gene PSENEN) is “inhibitor”. For `C[C@H](NC(=O)C(=O)Nc1ccccc1C(C)(C)C)C(=O)N[C@@H](CC(=O)O)C(=O)COc1c(F)c(F)cc(F)c1F`, the interaction_types entry is, setting by setting: (gene CASP4) “inhibitor”; (gene CASP5) “inhibitor”. For the compound `NS(=O)(=O)c1ccc(S(=O)(=O)Nc2cccc3c(Cl)c[nH]c23)cc1`, the interaction_types result (gene CA1) is “inhibitor”. As to `CNC(=O)[C@@H](NC(=O)[C@H](CC(C)C)[C@H](O)C(=O)NO)C(C)(C)C`, the interaction_types entry (gene MMP8) was “inhibitor”. As for `CC(C)[C@H](O)C(=O)N[C@@H](C)C(=O)N[C@@H]1C(=O)N(C)CCc2ccccc21`, the interaction_types result (gene PSENEN) is on record as “inhibitor”.

Turning to `C1CCC2(C1)C1CN(CC3CC3)CC2CN(CC2CC2)C1`, the interaction_types result (gene KCNH7) is “blocker”. Regarding `COc1ccc(CCN(C)CCCC(C#N)(c2ccc(OC)c(OC)c2)C(C)C)cc1OC` (centres unmarked), the interaction_types entry under setting [1] was “inhibitor”. `CC(=O)Nc1nnc(S(N)(=O)=O)s1` [ACETAZOLAMIDE]: the interaction_types result (gene CA1) is listed as “inhibitor”. As to `COc1cc(C)c(/C=C/C(C)=C/C=C/C(C)=C/C(=O)O)c(C)c1C` [ACITRETIN], the interaction_types entry (gene RXRB) was “agonist”. Take `Nc1ncnc2c1ncn2[C@@H]1O[C@H](COP(=O)(O)OP(=O)(O)O)[C@@H](O)[C@H]1O` [ADENOSINE DIPHOSPHATE]: the interaction_types result (gene P2RY13) is given as “agonist”.

For `Nc1ncnc2c1ncn2[C@@H]1O[C@H](COP(=O)(O)O)[C@@H](O)[C@H]1O` [ADENOSINE PHOSPHATE], the interaction_types entry (gene PRKAB1) is recorded as “activator”. Take `Nc1ncnc2c1ncn2[C@@H]1O[C@H](COP(=O)(O)OP(=O)(O)OP(=O)(O)O)[C@@H](O)[C@H]1O` [ADENOSINE TRIPHOSPHATE]: where the note is “gene P2RY13”, the interaction_types entry is listed as “agonist”. In the case of `Nc1ncnc2c1ncn2[C@@H]1O[C@H](CO)[C@@H](O)[C@H]1O` [ADENOSINE, reference compound], the interaction_types result (gene PI4K2B) is “inhibitor”. `CC1=C(/C=C/C(C)=C\C=C\C(C)=C\C(=O)O)C(C)(C)CCC1` [ALITRETINOIN, reference compound]: where the note is “gene RXRB”, the interaction_types result is recorded as “agonist”. Consider `CCCCc1c(-c2ccc(OC)cc2)[nH]c2nccnc12` [ALOISINE], for which the interaction_types result (gene PTK2B) is on record as “inhibitor”. With `CCC1(c2ccc(N)cc2)CCC(=O)NC1=O` (centres unmarked) [AMINOGLUTETHIMIDE, reference compound], under “gene CYP19A1”, the interaction_types result was “inhibitor”. With `CC(C)c1ccc2oc3nc(N)c(C(=O)O)cc3c(=O)c2c1` [AMLEXANOX, reference compound], the interaction_types entry (gene S100A12) was “antagonist” and the interaction_types result (gene S100A13, drug-gene interaction listed in DGIdb export) was “antagonist”. For `CCOC(=O)C1=C(COCCN)NC(C)=C(C(=O)OC)C1c1ccccc1Cl` (centres unmarked) [AMLODIPINE], the interaction_types result (gene CA1) is “inhibitor”. In the case of `CC(C)(C#N)c1cc(Cn2cncn2)cc(C(C)(C)C#N)c1` [ANASTROZOLE], the interaction_types result (gene CYP19A1) is given as “inhibitor”. As for `Cc1c(CN2CCN(C(=O)[C@H](C)O)CC2)sc2c(N3CCOCC3)nc(-c3cnc(N)nc3)nc12` [APITOLISIB], where the note is “gene FGR”, the interaction_types entry was “inhibitor”. On to `C[C@H]1[C@@H](O)O[C@@H]2O[C@@]3(C)CC[C@H]4[C@H](C)CC[C@@H]1[C@@]24OO3` [ARTENIMOL], for which the interaction_types entry (gene PFN1) is reported as “ligand”. On to `C[C@H]1CC(CN)(CC(=O)O)C[C@@H]1C` [ATAGABALIN], for which the interaction_types result under setting [1] is recorded as “modulator”. For the compound `Nc1ccc(SC[C@@H]2CO[C@](CCc3ccc(Cl)cc3)(Cn3ccnc3)O2)cc1` [AZALANSTAT], under “gene CYP19A1”, the interaction_types result was “inhibitor”. For `CNC(=O)c1cc(Cl)c(OC(C)(C)C(=O)O)cc1OC[C@@H](O)CN1CCC2(CC1)Cc1cc(Cl)ccc1O2` [AZD4818], the interaction_types entry under setting [2] is “antagonist”. In the case of `CCS(=O)(=O)N1CC(CC#N)(n2cc(-c3ncnc4[nH]ccc34)cn2)C1` [BARICITINIB], the interaction_types result is reported as “inhibitor” (gene GAK, drug-gene interaction listed in DGIdb export) and “inhibitor” (gene PTK2B). For `O=S(=O)(N[C@H](CO)C(C(F)(F)F)C(F)(F)F)c1ccc(Cl)s1` [BEGACESTAT], the interaction_types entry (gene PSENEN) is listed as “inhibitor”. On to `NS(=O)(=O)c1cc2c(cc1C(F)(F)F)NC(Cc1ccccc1)NS2(=O)=O` (centres unmarked) [BENDROFLUMETHIAZIDE], for which, where the note is “gene CA1”, the interaction_types result is reported as “inhibitor”. Turning to `NS(=O)(=O)c1nnc(NS(=O)(=O)c2ccccc2)s1` [BENZOLAMIDE], the interaction_types entry (gene CA1) is “inhibitor”. As for `NS(=O)(=O)c1cc2c(cc1Cl)N=C(CSCc1ccccc1)NS2(=O)=O` [BENZTHIAZIDE, reference compound], the interaction_types result (gene CA1) was “inhibitor”. For `CC(C)COCC(CN(Cc1ccccc1)c1ccccc1)N1CCCC1` (centres unmarked) [BEPRIDIL HYDROCHLORIDE], the interaction_types entry under setting [1] is “blocker”. `CC(C)COCC(CN(Cc1ccccc1)c1ccccc1)N1CCCC1` (centres unmarked) [BEPRIDIL]: the interaction_types result under setting [1] is reported as “inhibitor”. As to `C=C(c1ccc(C(=O)O)cc1)c1cc2c(cc1C)C(C)(C)CCC2(C)C` [BEXAROTENE, reference compound], the interaction_types entry (gene RXRB) was “activator¦agonist”.

With `CC(C)(Oc1ccc(CCNC(=O)c2ccc(Cl)cc2)cc1)C(=O)O` [BEZAFIBRATE], the interaction_types entry (gene RXRB) is on record as “agonist”. As to `O=C(O)Cc1cccc(-c2cc(CCCCCCc3ccc(O[C@H]4O[C@H](CO)[C@@H](O)[C@H](O)[C@@H]4O)c(-c4cccc(CC(=O)O)c4)c3)ccc2O[C@H]2O[C@H](CO)[C@@H](O)[C@H](O)[C@@H]2O)c1` [BIMOSIAMOSE], the interaction_types entry (gene SELL) is listed as “inhibitor”. As for `C=CCC1=C(C)C(OC(=O)[C@@H]2[C@@H](C=C(C)C)C2(C)C)CC1=O` (some centres unmarked) [BIOALLETHRIN], the interaction_types result under setting [1] is “blocker”. For `CC(C)[C@@H](NC(=O)NCC(C)(C)O)C(=O)N1CC[C@](O)(c2ccc(Cl)cc2)C(C)(C)C1` [BMS-817399], the interaction_types entry under setting [2] is “antagonist”. Turning to `COc1cc(Nc2c(C#N)cnc3cc(OCCCN4CCN(C)CC4)c(OC)cc23)c(Cl)cc1Cl` [BOSUTINIB], under setting [3], the interaction_types result is “inhibitor”. For the compound `CCN[C@H]1CN(CCCOC)S(=O)(=O)c2sc(S(N)(=O)=O)cc21` [BRINZOLAMIDE], where the note is “gene CA1”, the interaction_types result is “inhibitor”.

For the compound `CO[C@H]1C(=O)[C@]2(C)[C@@H](OC)C[C@H]3OC[C@@]3(OC(C)=O)[C@H]2[C@H](OC(=O)c2ccccc2)[C@]2(O)C[C@H](OC(=O)[C@H](O)[C@@H](NC(=O)OC(C)(C)C)c3ccccc3)C(C)=C1C2(C)C` [CABAZITAXEL, reference compound], the interaction_types entry (gene TUBA4A) was “inhibitor¦binder”.

As to `COc1ccccc1OCCNCC(O)COc1cccc2[nH]c3ccccc3c12` (centres unmarked) [CARVEDILOL, reference compound], for the setting “gene KCNJ2”, the interaction_types result is “inhibitor”. As to `COc1cc(N2CCN(C(=O)Cn3nc(-c4ncc[nH]4)c4cccnc43)CC2)ccc1Cl` [CCX354], under setting [2], the interaction_types entry is reported as “antagonist”. `COc1ccc(S(=O)(=O)N(Cc2cccnc2)[C@@H](C(=O)NO)C(C)C)cc1` [CGS-27023A]: where the note is “gene MMP8”, the interaction_types result is recorded as “inhibitor”.

On to `CCN(CC)CCCC(C)Nc1ccnc2cc(Cl)ccc12` (centres unmarked) [CHLOROQUINE], for which the interaction_types result (gene TNF, drug-gene interaction listed in DGIdb export) was “inhibitor”. Turning to `NS(=O)(=O)c1cc2c(cc1Cl)N=CNS2(=O)=O` [CHLOROTHIAZIDE], under “gene CA1”, the interaction_types result is “inhibitor”.

Turning to `NS(=O)(=O)c1cc(C2(O)NC(=O)c3ccccc32)ccc1Cl` (centres unmarked) [CHLORTHALIDONE, reference compound], the interaction_types result (gene CA1) was “inhibitor”.

Turning to `CC(C)CCC[C@@H](C)[C@H]1CC[C@H]2[C@@H]3CC=C4C[C@@H](O)CC[C@]4(C)[C@H]3CC[C@]12C` [CHOLESTEROL], the interaction_types result (gene CLEC4E) was “ligand”. For `O=c1cc(-c2ccccc2)oc2cc(O)cc(O)c12` [CHRYSIN], the interaction_types result (gene CYP1A1) is reported as “inhibitor”. Take `O=P(O)(O)C(Cl)(Cl)P(=O)(O)O` [CLODRONIC ACID]: for the setting “gene SLC25A4”, the interaction_types result is “inhibitor”. `COc1cc2c(c(OC)c1OC)-c1ccc(OC)c(=O)cc1[C@@H](NC(C)=O)CC2` [COLCHICINE]: the interaction_types result (gene TUBA4A) was “inhibitor”. With `COc1cc([C@H]2C(C#N)=C(N)Oc3c2ccc(N)c3N)cc(Br)c1OC` [CROLIBULIN], the interaction_types entry (gene TUBA4A) is on record as “inhibitor”.

With `NS(=O)(=O)c1cc2c(cc1Cl)NC(C1CC3C=CC1C3)NS2(=O)=O` (centres unmarked) [CYCLOTHIAZIDE, reference compound], the interaction_types entry (gene CA1) is listed as “inhibitor”. Turning to `CSCCNc1nc(SCCC(F)(F)F)nc2c1ncn2[C@@H]1O[C@H](COP(=O)(O)OP(=O)(O)C(Cl)(Cl)P(=O)(O)O)[C@@H](O)[C@H]1O` [Cangrelor, reference compound], the interaction_types result (gene P2RY13) is “antagonist”. Consider `Nc1ccncc1` [DALFAMPRIDINE], for which the interaction_types result (gene KCNH7) is reported as “blocker”. On to `Cc1nc(Nc2ncc(C(=O)Nc3c(C)cccc3Cl)s2)cc(N2CCN(CCO)CC2)n1` [DASATINIB], for which the interaction_types entry is “inhibitor” (gene FGR) and “inhibitor” under setting [3]. Turning to `CNC(=O)c1ccc(Nc2ncc(C(F)(F)F)c(NCc3nccnc3N(C)S(C)(=O)=O)n2)cc1` [DEFACTINIB], the interaction_types result (gene PTK2B) is on record as “inhibitor”. On to `COc1ccc2c(c1)[C@]13CCCC[C@@H]1[C@H](C2)N(C)CC3` [DEXTROMETHORPHAN], for which the interaction_types result (gene CYBB) was “inhibitor”.
